In US20080275032A1, “Pyridazinone compounds” (priority 2006, published 2008):
Structures can show the parent of a compound that is named as a salt.

Biological target: HCV NS5B polymerase (Hepatitis C virus genotype 1b, UniProt P26663)
Experiment: biochemical
Conditions: HCV polymerase inhibition, 50 nM enzyme, 2 h at room temperature, FlashPlate [α-33P]GTP incorporation
Experimental: NS5B Polymerase Inhibition Assay (IC50)
Compounds were tested for HCV polymerase inhibition. Assays were performed in a 96-well streptavidin-coated FlashPlate using 50 nM enzyme, 0.5 μCi of [α-^33P]GTP, 0.6 μM GTP, and 50 nM 5′biotinylated oligo (rG13)/poly rC in 20 mM Tris-HCl, pH 7.5, 5 mM MgCl2, 20 mM NaCl, 5 mM dithiothreitol, and 0.1 g/L BSA. The reaction was stopped by aspiration after 2 h at room temperature and the plate was washed several times. After washing, incorporated radioactivity was counted using a Microbeta scintillation counter.

HCV NS5B polymerase, sequence (P26663 2420-3010): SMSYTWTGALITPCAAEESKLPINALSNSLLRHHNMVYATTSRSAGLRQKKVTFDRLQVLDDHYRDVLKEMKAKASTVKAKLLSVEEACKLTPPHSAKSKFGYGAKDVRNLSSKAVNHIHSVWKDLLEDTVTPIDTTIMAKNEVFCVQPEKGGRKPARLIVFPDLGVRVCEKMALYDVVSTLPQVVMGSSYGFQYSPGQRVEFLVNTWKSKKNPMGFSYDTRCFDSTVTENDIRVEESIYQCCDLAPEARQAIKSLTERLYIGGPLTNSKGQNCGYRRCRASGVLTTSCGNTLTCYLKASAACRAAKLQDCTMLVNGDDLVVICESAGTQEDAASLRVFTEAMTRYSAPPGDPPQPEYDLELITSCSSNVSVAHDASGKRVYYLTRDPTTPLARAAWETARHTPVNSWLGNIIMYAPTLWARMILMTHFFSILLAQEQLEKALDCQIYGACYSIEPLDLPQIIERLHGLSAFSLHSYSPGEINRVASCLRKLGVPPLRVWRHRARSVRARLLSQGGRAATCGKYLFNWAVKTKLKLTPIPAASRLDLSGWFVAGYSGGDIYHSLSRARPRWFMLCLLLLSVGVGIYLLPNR

Compound | IC50 [nM]
COCCn1nc(-c2cccs2)c(O)c(C2=NS(=O)(=O)c3cc(NS(C)(=O)=O)ccc3N2)c1=O [N-{3-[5-Hydroxy-2-(2-methoxy-ethyl)-3-oxo-6-thiophen-2-yl-2,3-dihydro-pyridazin-4-yl]-1,1-dioxo-1,2-dihydro-1λ^6-benzo[1,2,4]thiadiazin-7-yl}-methanesulfonamide] | < 100
O=C(NS(=O)(=O)Nc1ccc2c(c1)S(=O)(=O)NC(c1c(O)c(-c3cncs3)nn(CC3CCC3)c1=O)=N2)OCc1ccccc1 [N-[3-(2-Cyclobutylmethyl-5-hydroxy-3-oxo-6-thiazol-5-yl-2,3-dihydro-pyridazin-4-yl)-1,1-dioxo-1,2-dihydro-1λ^6-benzo[1,2,4]thiadiazin-7-yl]-3-carbamic-acid-benzyl-ester-sulfamide] | < 100
CC(C)CCn1nc(-c2cccs2)c(O)c(C2=Nc3ccc(NCCS(N)(=O)=O)cc3S(=O)(=O)N2)c1=O [2-{3-[5-Hydroxy-2-(3-methyl-butyl)-3-oxo-6-thiophen-2-yl-2,3-dihydro-pyridazin-4-yl]-1,1-dioxo-1,2-dihydro-1λ^6-benzo[1,2,4]thiadiazin-7-ylamino}-ethanesulfonic acid amide] | 100 to 1000
CC(C)CCn1nc(-c2cccs2)c(OCOC(=O)C(C)(C)C)c(C2=Nc3ccc(N(C)S(C)(=O)=O)cc3S(=O)(=O)N2)c1=O [2,2-Dimethyl-propionic acid 5-[7-(methanesulfonyl-methyl-amino)-1,1-dioxo-1,2-dihydro-1λ^6-benzo[1,2,4]thiadiazin-3-yl]-1-(3-methyl-butyl)-6-oxo-3-thiophen-2-yl-1,6-dihydro-pyridazin-4-yloxymethyl ester] | 1000 to 10000
C/C(=C\c1nn(CCC(C)C)c(=O)c(C2=NS(=O)(=O)c3cc(NS(C)(=O)=O)ccc3N2)c1O)C(F)(F)F [N-{3-[5-Hydroxy-2-(3-methyl-butyl)-3-oxo-6-(3,3,3-trifluoro-2-methyl-propenyl)-2,3-dihydro-pyridazin-4-yl]-1,1-dioxo-1,2-dihydro-1λ^6-benzo[1,2,4]thiadiazin-7-yl}-methanesulfonamide] | 100 to 1000
CC(C)CCn1nc(-c2cccs2)c(O)c(C2=Nc3ccc(N(COC(=O)C(C)(C)C)S(C)(=O)=O)cc3S(=O)(=O)N2)c1=O [2,2-Dimethyl-propionic acid ({3-[5-hydroxy-2-(3-methyl-butyl)-3-oxo-6-thiophen-2-yl-2,3-dihydro-pyridazin-4-yl]-1,1-dioxo-1,2-dihydro-1λ^6-benzo[1,2,4]thiadiazin-7-yl}-methanesulfonyl-amino)-methylester] | 100 to 1000
CS(=O)(=O)Nc1ccc2c(c1)S(=O)(=O)NC(c1c(O)c(-c3cncs3)nn(CCC3CC3)c1=O)=N2 [N-{3-[2-(2-Cyclopropyl-ethyl)-5-hydroxy-3-oxo-6-thiazol-5-yl-2,3-dihydro-pyridazin-4-yl]-1,1-dioxo-1,2-dihydro-1λ^6-benzo[1,2,4]thiadiazin-7-yl}-methanesulfonamide] | < 100
CC(C)(C)CCn1nc(-c2cccs2)c(O)c(C2=Nc3ccc(NS(=O)(=O)CCN)cc3S(=O)(=O)N2)c1=O [2-Amino-ethanesulfonic acid {3-[2-(3,3-dimethyl-butyl)-5-hydroxy-3-oxo-6-thiophen-2-yl-2,3-dihydro-pyridazin-4-yl]-1,1-dioxo-1,2-dihydro-1λ^6-benzo[1,2,4]thiadiazin-7-yl}-amide] | < 100
CC(C)CCn1nc(CCC2OCCCO2)c(O)c(C2=Nc3ccc(NS(C)(=O)=O)cc3S(=O)(=O)N2)c1=O [N-{3-[6-(2-[1,3]Dioxan-2-yl-ethyl)-5-hydroxy-2-(3-methyl-butyl)-3-oxo-2,3-dihydro-pyridazin-4-yl]-1,1-dioxo-1,2-dihydro-1λ^6-benzo[1,2,4]thiadiazin-7-yl}-methanesulfonamide] | 100 to 1000
CS(=O)(=O)Nc1ccc2c(c1)S(=O)(=O)N=C(c1c(O)c(-c3cccs3)nn(Cc3ccc(F)c(Cl)c3)c1=O)N2 [N-{3-[2-(3-Chloro-4-fluoro-benzyl)-5-hydroxy-3-oxo-6-thiophen-2-yl-2,3-dihydro-pyridazin-4-yl]-1,1-dioxo-1,2-dihydro-1λ^6-benzo[1,2,4]thiadiazin-7-yl}-methanesulfonamide] | < 100
COC(C)(C)CCn1nc(-c2cccs2)c(O)c(C2=NS(=O)(=O)c3cc(NS(C)(=O)=O)ccc3N2)c1=O [N-{3-[5-Hydroxy-2-(3-methoxy-3-methyl-butyl)-3-oxo-6-thiophen-2-yl-2,3-dihydro-pyridazin-4-yl]-1,1-dioxo-1,2-dihydro-1λ^6-benzo[1,2,4]thiadiazin-7-yl}-methanesulfonamide] | < 100
CS(=O)(=O)Nc1ccc2c(c1)S(=O)(=O)NC(c1c(O)c(-c3cccs3)nn(CC3CCC3)c1=O)=N2 [N-[3-(2-Cyclobutylmethyl-5-hydroxy-3-oxo-6-thiophen-2-yl-2,3-dihydro-pyridazin-4-yl)-1,1-dioxo-1,2-dihydro-1λ^6-benzo[1,2,4]thiadiazin-7-yl]-methanesulfonamide] | < 100
CC(C)CCn1nc(-c2cncs2)c(O)c(C2=NS(=O)(=O)c3cc(NS(C)(=O)=O)ccc3N2)c1=O [N-{3-[5-Hydroxy-2-(3-methyl-butyl)-3-oxo-6-thiazol-5-yl-2,3-dihydro-pyridazin-4-yl]-1,1-dioxo-1,2-dihydro-1λ^6-benzo[1,2,4]thiadiazin-7-yl}-methanesulfonamide] | < 100
CN1C(c2c(O)c(-c3cccs3)nn(Cc3ccc(F)cc3)c2=O)=NS(=O)(=O)c2cc(NS(C)(=O)=O)ccc21 [N-{3-[2-(4-Fluoro-benzyl)-5-hydroxy-3-oxo-6-thiophen-2-yl-2,3-dihydro-pyridazin-4-yl]-4-methyl-1,1-dioxo-1,4-dihydro-1λ^6-benzo[1,2,4]thiadiazin-7-yl}-methanesulfonamide] | 1000 to 10000
CS(=O)(=O)Nc1ccc2c(c1)S(=O)(=O)NC(c1c(O)c(-c3ccccc3)nn(CC3CC3)c1=O)=N2 [N-[3-(2-Cyclopropylmethyl-5-hydroxy-3-oxo-6-phenyl-2,3-dihydro-pyridazin-4-yl)-1,1-dioxo-1,2-dihydro-1l6-benzo[1,2,4]thiadiazin-7-yl]-methanesulfonamide] | 100 to 1000
CC(C)S(=O)(=O)Nc1ccc2c(c1)S(=O)(=O)NC(c1c(O)c(-c3cccs3)nn(CCC3CC3)c1=O)=N2 [Propane-2-sulfonic acid {3-[2-(2-cyclopropyl-ethyl)-5-hydroxy-3-oxo-6-thiophen-2-yl-2,3-dihydro-pyridazin-4-yl]-1,1-dioxo-1,2-dihydro-1λ^6-benzo[1,2,4]thiadiazin-7-yl}-amide] | < 100
CC(C)CCn1nc(-c2cccs2)c(O)c(C2=Nc3ccc(N(C(C)C)S(C)(=O)=O)cc3S(=O)(=O)N2)c1=O [N-{3-[5-Hydroxy-2-(3-methyl-butyl)-3-oxo-6-thiophen-2-yl-2,3-dihydro-pyridazin-4-yl]-1,1-dioxo-1,2-dihydro-1λ^6-benzo[1,2,4]thiadiazin-7-yl}-N-isopropyl-methanesulfonamide] | 1000 to 10000
CC(C)CCn1nc(-c2ccn(C)c2)c(O)c(C2=Nc3ccc(NS(C)(=O)=O)cc3S(=O)(=O)N2)c1=O [N-{3-[5-Hydroxy-2-(3-methyl-butyl)-6-(1-methyl-1H-pyrrol-3-yl)-3-oxo-2,3-dihydro-pyridazin-4-yl]-1,1-dioxo-1,2-dihydro-1λ^6-benzo[1,2,4]thiadiazin-7-yl}-methanesulfonamide] | < 100
CCCS(=O)(=O)Nc1ccc2c(c1)S(=O)(=O)NC(c1c(O)c(-c3cncs3)nn(CCC(C)C)c1=O)=N2 [Propane-1-sulfonic acid {3-[5-hydroxy-2-(3-methyl-butyl)-3-oxo-6-thiazol-5-yl-2,3-dihydro-pyridazin-4-yl]-1,1-dioxo-1,2-dihydro-1λ^6-benzo[1,2,4]thiadiazin-7-yl}-amide] | < 100
CC(C)(C)CCn1nc(-c2cccs2)c(O)c(C2=Nc3ccc(NS(C)(=O)=O)cc3S(=O)(=O)N2)c1=O [N-{3-[2-(3,3-dimethyl-butyl)-5-hydroxy-3-oxo-6-thiophen-2-yl-2,3-dihydro-pyridazin-4-yl]-1,1-dioxo-1,2-dihydro-1λ^6-benzo[1,2,4]thiadiazin-7-yl}-methanesulfonamide, sodium salt] | < 100
CS(=O)(=O)Nc1ccc2c(c1)S(=O)(=O)N=C(c1c(O)c(-c3cccs3)nn(CCC3CCCCC3)c1=O)N2 [N-{3-[2-(2-Cyclohexyl-ethyl)-5-hydroxy-3-oxo-6-thiophen-2-yl-2,3-dihydro-pyridazin-4-yl]-1,1-dioxo-1,2-dihydro-1λ^6-benzo[1,2,4]thiadiazin-7-yl}-methanesulfonamide] | 100 to 1000
CC(C)CC(C)n1nc(-c2cccs2)c(O)c(C2=NS(=O)(=O)c3cc(NS(C)(=O)=O)ccc3N2)c1=O (stereo not drawn) [N-{3-[2-(1,3-Dimethyl-butyl)-5-hydroxy-3-oxo-6-thiophen-2-yl-2,3-dihydro-pyridazin-4-yl]-1,1-dioxo-1,2-dihydro-1λ^6-benzo[1,2,4]thiadiazin-7-yl}-methanesulfonamide] | 100 to 1000
CC(C)CCn1nc(-c2cccs2)c(O)c(C2=Nc3ccc(C4CCCS4(=O)=O)cc3S(=O)(=O)N2)c1=O (stereo not drawn) [4-[7-(1,1-Dioxo-tetrahydro-1l6-thiophen-2-yl)-1,1-dioxo-1,2-dihydro-1λ^6-benzo[1,2,4]thiadiazin-3-yl]-5-hydroxy-2-(3-methyl-butyl)-6-thiophen-2-yl-2H-pyridazin-3-one] | 100 to 1000
CC(C)CCn1nc(CC2CCC2)c(O)c(C2=NS(=O)(=O)c3cc(NS(C)(=O)=O)ccc3N2)c1=O [N-{3-[6-Cyclobutylmethyl-5-hydroxy-2-(3-methyl-butyl)-3-oxo-2,3-dihydro-pyridazin-4-yl]-1,1-dioxo-1,2-dihydro-1λ^6-bnezo[1,2,4]thiadiazin-7-yl}-methanesulfonamide] | 100 to 1000
